Test results published in patent publication US11541055B2, “Inhibitors of human immunodeficiency virus replication” (ViiV Healthcare UK (No. 5) LIMITED, priority 2018, dated 2023).

What was measured:
[1] = system: recombinant NL4-3 virus (Renilla luciferase) in MT-2 cells; assay: HIV cell culture assay (antiviral activity, luciferase readout); type: cell-based; conditions: Renilla, NL43
In short: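 Antiviral EC50 was derived via the median effect equation from luciferase signal. The signal came from MT-2 cultures infected for 4–5 days with a nef-deleted, Renilla luciferase-expressing NL4-3 reporter virus (made in 293T cells) in the presence of compound dilutions.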

[2] = Compound cytotoxicity, XTT-based colorimetric assay; type: cell-based; conditions: human; uninfected MT2 cells, day 4, XTT
In short: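 Run under the antiviral-assay protocol but without virus. Viability was read on day 4 and CC50 values were derived from the readout.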

COc1cnc(-c2ccc3c(=O)n(-c4ccc(Cl)c5c(NS(C)(=O)=O)nn(CC(F)(F)F)c45)c([C@H](Cc4cc(F)cc(F)c4)NC(=O)Cn4nc(C(F)F)c5c4C(F)(F)[C@@H]4C[C@H]54)nc3c2)nc1 (atropisomer, axis not shown) [Example 115, N-[(1S)-1-{3-[4-chloro-3-methanesulfonamido-1-(2,2,2-trifluoroethyl)-1H-indazol-7-yl]-7-(5-methoxypyrimidin-2-yl)-4-oxo-3,4-dihydroquinazolin-2-yl}-2-(3,5-difluorophenyl)ethyl]-2-[(2S,4R)-9-(difluoromethyl)-5,5-difluoro-7,8-diazatricyclo[4.3.0.0^2,^4]nona-1(6),8-dien-7-yl]acetamide]
EC50 [1]: 0.098 nM | CC50 at 4 days [2]: > 500 nM

COc1cccnc1-c1ccc2c(=O)n(-c3ccc(Cl)c4c(NS(C)(=O)=O)nn(C)c34)c([C@H](Cc3cc(F)cc(F)c3)NC(=O)Cn3nc(C(F)F)c4c3C(F)(F)[C@@H]3C[C@H]43)nc2c1 (atropisomer, axis not shown; (P)) [Example 11, N—((S)-1-((3P)-3-(4-chloro-1-methyl-3-(methylsulfonamido)-1H-indazol-7-yl)-7-(3-methoxypyridin-2-yl)-4-oxo-3,4-dihydroquinazolin-2-yl)-2-(3,5-difluorophenyl)ethyl)-2-((3bS,4aR)-3-(difluoromethyl)-5,5-difluoro-3b,4,4a,5-tetrahydro-1H-cyclopropa[3,4]cyclopenta[1,2-c]pyrazol-1-yl)acetamide]
EC50 [1]: 0.12 nM | CC50 at 4 days [2]: > 500 nM

Cc1cc(-c2ccc3c(=O)n(-c4ccc(Cl)c5c(NS(C)(=O)=O)nn(CC(F)F)c45)c([C@H](Cc4cc(F)cc(F)c4)NC(=O)Cn4nc(C(F)F)c5c4C(F)(F)[C@@H]4C[C@H]54)nc3c2)nc(C)n1 (atropisomer, axis not shown) [Example 131, N-[(1S)-1-{3-[4-chloro-1-(2,2-difluoroethyl)-3-methanesulfonamido-1H-indazol-7-yl]-7-(2,6-dimethylpyrimidin-4-y1)-4-oxo-3,4-dihydroquinazolin-2-y1}-2-(3,5-difluorophenyl)ethyl]-2-[(2S,4R)-9-(difluoromethyl)-5,5-difluoro-7,8-diazatricyclo[4.3.0.0^2,^4]nona-1(6),8-dien-7-yl]acetamide]
EC50 [1]: 0.038 nM | CC50 at 4 days [2]: > 500 nM

CS(=O)(=O)c1cccnc1-c1ccc2c(=O)n(-c3ccc(Cl)c4c(NS(=O)(=O)C5CC5)nn(CC(F)F)c34)c([C@H](Cc3cc(F)cc(F)c3)NC(=O)Cn3nc(C(F)F)c4c3C(F)(F)[C@@H]3C[C@H]43)nc2c1 (atropisomer, axis not shown; (P)) [Example 95, N—((S)-1-((3P)-3-(4-chloro-3-(cyclopropanesulfonamido)-1-(2,2-difluoroethyl)-1H-indazol-7-yl)-7-(3-(methylsulfonyl)pyridin-2-yl)-4-oxo-3,4-dihydroquinazolin-2-yl)-2-(3,5-difluorophenyl)ethyl)-2-((3bS,4aR)-3-(difluoromethyl)-5,5-difluoro-3b,4,4a,5-tetrahydro-1H-cyclopropa[3,4]cyclopenta[1,2-c]pyrazol-1-yl)acetamide]
EC50 [1]: 0.053 nM | CC50 at 4 days [2]: > 500 nM

COc1ncc(-c2ccc3c(=O)n(-c4ccc(Cl)c5c(NS(=O)(=O)C6CC6)nn(CC(F)F)c45)c([C@H](Cc4cc(F)cc(F)c4)NC(=O)Cn4nc(C(F)F)c5c4C(F)(F)[C@@H]4C[C@H]54)nc3c2)cn1 (atropisomer, axis not shown) [Example 99]
EC50 [1]: 0.089 nM | CC50 at 4 days [2]: > 500 nM
